Values of other authors, collected in patent US20230149278A1, “METHOD FOR DYEING KERATIN MATERIAL, COMPRISING THE USE OF AN ORGANOSILICON COMPOUND, A POLYSACCHARIDE, A COLORING COMPOUND AND A POST-TREATMENT AGENT” (Henkel AG & Co. KGaA, priority 2020, published 2023).

conditions: water at 25° C.

solubility in water (in words) | Molecule
readily soluble | O=C(O)C1=NN(c2ccc(S(=O)(=O)O)cc2)C(=O)C1N=Nc1ccc(S(=O)(=O)O)cc1 (stereo not drawn) [Acid Yellow 23, 4,5-dihydro-5-oxo-1-(4-sulfophenyl)-4-((4-sulfophenyl)azo)-1H-pyrazole-3-carboxylic acid]

same assay, conditions: water, 25° C.

solubility in water | Molecule
more than 20 wt. % | CCN(Cc1cccc(S(=O)(=O)[O-])c1)c1ccc(C(=C2C=CC(=[N+](CC)Cc3cccc(S(=O)(=O)[O-])c3)C=C2)c2ccccc2S(=O)(=O)[O-])cc1.[Na+].[Na+] [Acid Blue 9]
2,5 g/L | Nc1cc(S(=O)(=O)[O-])cc2cc(S(=O)(=O)[O-])c(N=Nc3ccccc3)c(O)c12.[Na+].[Na+] [Acid Red 33, disodium salt of 5-amino-4-hydroxy-3-(phenylazo)-naphthalene-2,7-disulphonate]
20 g/L | mixture of the sodium salts of mono- and disulfonic acids of 2-(2-quinolyl)-1H-indene-1,3(2H)-dione [Acid Yellow 3]

Molecule | solubility in water
O=S(=O)([O-])c1ccc(N=Nc2c(O)ccc3ccccc23)cc1.[Na+] [Acid Orange 7, sodium salt of 4-[(2-hydroxy-1-naphthyl)azo]benzene sulfonate] | more than 7 g/L
O=C([O-])c1c(Cl)c(Cl)c(Cl)c(Cl)c1-c1c2c(Br)cc(=O)c(Br)c-2oc2c(Br)c(O)cc(Br)c12.O=C([O-])c1c(Cl)c(Cl)c(Cl)c(Cl)c1-c1c2c(Br)cc(=O)c(Br)c-2oc2c(Br)c(O)cc(Br)c12.[Na+].[Na+] [Acid Red 92, disodium salt of 3,4,5,6-tetrachloro-2-(1,4,5,8-tetrabromo-6-hydroxy-3-oxoxanthen-9-yl)benzoic acid] | greater than 10 g/L
